Measurements reported in patent US10414763B2 (CANCER RESEARCH TECHNOLOGY LIMITED, priority 2014, dated 2019).

target: T1, full-length human PKCι (Homo sapiens, UniProt P41743); experiment: PKCι IC50 IMAP fluorescence polarisation assay, full-length enzyme, 150 μM ATP; assay type: biochemical; conditions: read-out: IC50 in IMAP assay against full length PKCi at 150 μM ATP
T1 construct: Recombinant, full-length human PKCι expressed in Sf21 insect cells is also commercially available; purchased EMD Millipore; host or cells: Sf21 insect cells (baculovirus)
T1 sequence (P41743 1-596): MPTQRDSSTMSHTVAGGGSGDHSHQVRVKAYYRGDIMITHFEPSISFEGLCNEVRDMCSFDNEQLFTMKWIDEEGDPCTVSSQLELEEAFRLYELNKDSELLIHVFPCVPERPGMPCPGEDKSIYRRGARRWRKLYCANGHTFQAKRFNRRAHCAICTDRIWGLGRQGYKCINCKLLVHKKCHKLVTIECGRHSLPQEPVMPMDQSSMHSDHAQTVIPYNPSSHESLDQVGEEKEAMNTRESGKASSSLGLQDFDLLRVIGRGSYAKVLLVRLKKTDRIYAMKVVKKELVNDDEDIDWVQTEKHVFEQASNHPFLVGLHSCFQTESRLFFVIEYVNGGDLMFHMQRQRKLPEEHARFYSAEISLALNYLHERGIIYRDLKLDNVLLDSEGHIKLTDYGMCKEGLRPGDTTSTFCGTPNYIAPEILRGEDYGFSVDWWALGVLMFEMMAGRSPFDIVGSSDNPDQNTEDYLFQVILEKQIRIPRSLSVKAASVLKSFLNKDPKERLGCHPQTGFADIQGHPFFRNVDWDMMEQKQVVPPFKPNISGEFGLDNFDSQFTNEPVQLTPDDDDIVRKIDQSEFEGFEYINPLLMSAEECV
Description: Assays are based on the ability of PKCι to phosphorylate a commercially available peptide substrate in vitro. The peptide substrate is FAM-PKCε pseudopeptide derived peptide, and comprises the amino acid sequence 5FAM-ERMRPRKRQGSVRRRV-NH2. Recombinant, full-length human PKCι expressed in Sf21 insect cells is also commercially available. Recombinant, kinase-domain human PKCι is expressed and purified in-house.
The procedure below explains how dose response curves for inhibitors of PKCι are obtained. The screen described is for a 384 well format but the assay can be adapted to 1536 or other formats as required.
Compounds to be tested are dissolved in 100% DMSO. Compounds are diluted as required to give a final concentration of 4% DMSO (v/v) in the assay. 1 μl is plated into 384 well black low-binding flat bottomed assay plates which are used immediately. Dilutions and additions of compound to assay plates are carried out using Matrix WellMate® and Matrix PlateMate® Plus liquid handling systems.
On the day of the screen PKCι/substrate working solution, and ATP working solution, are prepared in buffer containing 20 mM tris-HCl pH7.5, 10 mM MgCl2, 0.01% Triton X100, 250 μM EGTA and 1 mM DTT. The final concentration of PKCι used varies depending on the batch of protein but is typically 15 pM. The final concentration of peptide substrate in the assay is 100 nM. ATP is used at a final concentration of 150 μM or 25 μM in the assays containing full-length or kinase-domain PKCι respectively, which corresponds to five times or equal to the KM^APP for ATP for each enzyme, respectively. The final buffer concentration in the assay is 18 mM tris-HCl pH7.5, 9 mM MgCl2, 0.009% Triton X100, 225 μM EGTA and 0.9 mM DTT. Relevant controls are included, namely no compound and no enzyme. 5 μl PKCι/substrate working solution at 30 pM and 200 nM, respectively, is added to the wells, followed by 4 μl ATP working solution at 375 μM or 62.5 μM for full-length or kinase-domain PKCι respectively, using a 16 channel Matrix pipette. The reaction is allowed to incubate for 60 minutes at room temperature, before the reaction is stopped and developed by the addition of 20 μl IMAP™ development reagent (Molecular Devices). IMAP development reagent consists of 0.25% (v/v) IMAP progressive binding reagent, 17% (v/v) IMAP progressive binding buffer A and 3% (v/v) IMAP progressive binding buffer B. The plates are then incubated for 2 hours at room temperature before being read using an appropriate plate reader, for example a Molecular Devices HT Analyst or a BMG Pherastar. Plates are read using a fluorescence polarisation protocol with excitation at 485 nm and emission at 530 nm, and dichroic mirror at 505 nm.
Percentage inhibition values are calculated from fluorescence polarisation values, using the no compound and no enzyme control values as 0% and 100% inhibition, respectively. IC50 determination is performed with ExcelFit software (IDBS) using curve fit 205. Z′ factors are determined for each plate tested and are all above 0.5.
Alternatively, compounds were tested for their ability to inhibit the kinase activity of recombinant human baculovirus-expressed PKCiota using the immobilized metal-ion affinity particle (IMAP®) fluorescence polarization detection system (Molecular Devices, Sunnyvale, Calif.). PKCiota/IMAP® substrate mixture (2×) was prepared in 1×IMAP assay buffer (Molecular Devices) containing 1 mM DTT so that the final assay concentrations were 15 pM PKCiota (EMD Millipore, Billerica, Mass.) and 100 nM 5-fluorescein-amidite (FAM)-PKC ? -pseudosubstrate (5-FAM-ERMRPRKRQGSVRRRV-NH2) (Molecular Devices). The 2× working solution was added at 5 μL/well into a 384-well black, non-binding, flat bottom assay plate (Corning, Corning, N.Y.). […]

| IC50 [nM] | SMILES |
| --- | --- |
| < 100 | FC(F)(F)c1cc2c(-c3nc(N4CC[C@H]5NCC[C@H]54)c4c(C5CC5)cncc4n3)ccnc2[nH]1 (racemic) [Example 19, (±)-5-Cyclopropyl-4-(3,6-cis)-hexahydro-pyrrolo[3,2-b]pyrrol-1-yl-2-(2-trifluoromethyl-1H-pyrrolo[2,3-b]pyridin-4-yl)-pyrido[3,4-d]pyrimidine] |
| < 100 | FC(F)(F)c1cc2c(-c3nc(N4CC[C@H]5NCC[C@H]54)c4c(C5CCC5)cncc4n3)ccnc2[nH]1 (racemic) [Example 54, (±)-5-Cyclobutyl-4-(3,6-cis)-hexahydro-pyrrolo[3,2-b]pyrrol-1-yl-2-(2-trifluoromethyl-1H-pyrrolo[2,3-b]pyridin-4-yl)-pyrido[3,4-d]pyrimidine] |
| < 100 | FC(F)(F)c1cc2c(-c3nc(N4CC[C@H]5NCCC[C@H]54)c4c(C5CC5)cncc4n3)ccnc2[nH]1 (racemic) [Example 63, (±)-5-Cyclopropyl-4-(3,7-cis)-octahydro-pyrrolo[3,2-b]pyridin-1-yl-2-(2-trifluoromethyl-1H-pyrrolo[2,3-b]pyridin-4-yl)-pyrido[3,4-d]pyrimidine] |
| < 100 | FC(F)(F)c1cc2c(-c3nc(N4CC[C@H]5NCCC[C@H]54)c4c(C5CCC5)cncc4n3)ccnc2[nH]1 (racemic) [Example 80, (±)-5-Cyclobutyl-4-(3,7-cis)-octahydro-pyrrolo[3,2-b]pyridin-1-yl-2-(2-trifluoromethyl-1H-pyrrolo[2,3-b]pyridin-4-yl)-pyrido[3,4-d]pyrimidine] |
| < 100 | FC(F)(F)c1cc2c(-c3nc(N4CCCC5NCCCC54)c4c(C5CCC5)cncc4n3)ccnc2[nH]1 (racemic) [Example 81, 5-Cyclobutyl-4-(octahydro-[1,5]naphthyridin-1-yl)-2-(2-trifluoromethyl-1H-pyrrolo[2,3-b]pyridin-4-yl)-pyrido[3,4-d]pyrimidine] |
| < 100 | Cc1cc2c(-c3nc(N4CC[C@H]5NCCC[C@H]54)c4c(C5CC5)cncc4n3)ccnc2[nH]1 (racemic) [Example 83, (±)-5-Cyclopropyl-2-(2-methyl-1H-pyrrolo[2,3-b]pyridin-4-yl)-4-(3,7-cis)-octahydro-pyrrolo [3,2-b]pyridin-1-yl-pyrido[3,4-d]pyrimidine] |

The remaining lines, values behind:

| SMILES | IC50 [nM] |
| --- | --- |
| FC(F)(F)c1cc2c(-c3nc(N4CCC[C@H]5CNC[C@H]54)c4c(C5CC5)cncc4n3)ccnc2[nH]1 (racemic) [Example 8, (±)-5-Cyclopropyl-4-(4,7-cis)-octahydro-pyrrolo[3,4-b]pvridin-1-yl-2-(2-trifluoromethyl-1H-pyrrolo[2,3-b]pyridin-4-yl)-pyrido[3,4-d]pyrimidine] | < 100 |
| Clc1ccccc1-c1cc2c(-c3nc(N4CC[C@@H]5CNCC[C@@H]54)c4c(C5CC5)cncc4n3)ccnc2[nH]1 (racemic) [Example 27, (±)-2-[2-(2-Chloro-phenyl)-1H-pyrrolo[2,3-b]pyridin-4-yl]-5-cyclopropyl-4-(3aR,7aS)-octahydro-pyrrolo[3,2-c]pyridin-1-yl-pyrido[3,4-d]pyrimidine] | < 100 |
| CC(C)(C)c1nc(-c2cc3c(-c4nc(N5CC[C@H]6NCC[C@H]65)c5c(C6CC6)cncc5n4)ccnc3[nH]2)cs1 (racemic) [Example 34, (±)-2-[2-(2-tert-Butyl-thiazol-4-yl)-1H-pyrrolo[2,3-b]pyridin-4-yl]-5-cyclopropyl-4-(3,6-cis)-hexahydro-pyrrolo[3,2-b]pyrrol-1-yl-pyrido[3,4-d]pyrimidine] | < 100 |
| Fc1cccnc1-c1cc2c(-c3nc(N4CC[C@H]5NCC[C@H]54)c4c(C5CC5)cncc4n3)ccnc2[nH]1 (racemic) [Example 56, (±)-5-Cyclopropyl-2-[2-(3-fluoro-pyridin-2-yl)-1H-pyrrolo[2,3-b]pyridin-4-yl]-4-(3,6- cis)-hexahydro-pyrrolo[3,2-b]pyrrol-1-yl-pyrido[3,4-d]pyrimidine] | < 100 |
| Fc1cccnc1-c1cc2c(-c3nc(N4CC[C@H]5NCC[C@H]54)c4c(C5CCC5)cncc4n3)ccnc2[nH]1 (racemic) [Example 57, (±)-5-Cyclobutyl-2-[2-(3-fluoro-pyridin-2-yl)-1H-pyrrolo[2,3-b]pyridin-4-yl]-4-(3,6- cis)-hexahydro-pyrrolo[3,2-b]pyrrol-1-yl-pyrido[3,4-d]pyrimidine] | < 100 |
| O[C@]12CCN(c3nc(-c4ccnc5[nH]c6ccccc6c45)nc4cncc(C5CCC5)c34)[C@H]1CCNC2 (racemic) [Example 76, (±)-(3aS,7aS)-1-[5-Cyclobutyl-2-(9H-pyrido[2,3-b]indol-4-yl)-pyrido[3,4-d]pyrimidin-4-yl]-octahydro-pyrrolo[3,2-c]pyridin-3a-ol] | < 100 |
| CN(c1nc(-c2ccnc3[nH]c4ccccc4c23)nc2cncc(C3CCC3)c12)[C@@H]1CCNC[C@@]1(C)O (racemic) [Example 77, (±)-(3,4-trans)-4-{[5-Cyclobutyl-2-(9H-pyrido[2,3-b]indol-4-yl)-pyrido[3,4-d]pyrimidin-4-yl]-methyl-amino}-3-methyl-piperidin-3-ol] | < 100 |
| Cc1cc2c(-c3nc(N4CC[C@H]5NCC[C@H]54)c4c(C5CC5)cncc4n3)ccnc2[nH]1 (racemic) [Example 82, (±)-5-Cyclopropyl-4-(3,6-cis)-hexahydro-pyrrolo[3,2-b]pyrrol-1-yl-2-(2-methyl-1H-pyrrolo[2,3-b]pyridin-4-yl)-pyrido[3,4-d]pyrimidine] | < 100 |
| Cc1cc2c(-c3nc(N4CC[C@H]5NCC[C@H]54)c4c(C5CCC5)cncc4n3)ccnc2[nH]1 (racemic) [Example 84, (±)-5-Cyclobutyl-4-(3,6-cis)-hexahydro-pyrrolo[3,2-b]pyrrol-1-yl-2-(2-methyl-1H-pyrrolo[2,3-b]pyridin-4-yl)-pyrido[3,4-d]pyrimidine] | < 100 |
| Cc1cc2c(-c3nc(N4CC[C@H]5NCCC[C@H]54)c4c(C5CCC5)cncc4n3)ccnc2[nH]1 (racemic) [Example 85, (±)-5-Cyclobutyl-2-(2-methyl-1H-pyrrolo[2,3-b]pyridin-4-yl)-4-(3,7-cis)-octahydro-pyrrolo [3,2-b]pyridin-1-yl-pyrido[3,4-d]pyrimidine] | < 100 |
| O[C@]12CCN(c3nc(-c4ccnc5[nH]c(C(F)(F)F)cc45)nc4cncc(C5CC5)c34)[C@H]1CCNC2 (racemic) [Example 104, (±)-(3aS,7aS)-1-[5-Cyclopropyl-2-(2-trifluoromethyl-1H-pyrrolo[2,3-b]pyridin-4-yl)-pyrido[3,4-d]pyrimidin-4-yl]-octahydro-pyrrolo [3,2-c]pyridin-3a-ol] | < 100 |
